Measured values published in patent US9259420B2, “Tetrandrine pharmaceutical formulations” (CBA Pharma, Inc., priority 2012, dated 2016).

Experiments:
[1] = bioequivalence study in rats: d-tetrandrine plasma concentration after oral gavage of free base versus hydrochloride salt (HPLC); assay type: in vivo, Sprague-Dawley rats
Description: A bioequivalence study in rats was conducted to compare the rate and extent to which the active drug ingredient (d-tetrandrine) is absorbed from a free base versus a hydrochloride salt. The drug ingredients were formulated in capsules by the University of Kentucky Center for Pharmaceutical Sciences and Technology (CPST) to administer equivalent amounts of d-tetrandrine to rats via oral gavage. Dosing syringes, capsule filling apparatus and mini capsules (size 9) appropriate for dosing rats were obtained from Torpac (Fairfield, N.J.).
A single rat per time point (destructive sampling) was used to obtain as much blood volume as possible for the HPLC analysis. This was necessary to accommodate analysis with the current UV based HPLC assay that had extensively been used at CBA Pharma. The JPLC analyses were performed at the CBA Pharma facilities, by a scientist with extensive experience in plasma based assay. Results were provided to a second scientist for evaluation and modeling.
Given the limited information on rat d-tetrandrine pharmacokinetics (PK), the studies were conducted in stages. A preliminary study (pilot) to identify the dose required for adequate assay sensitivity was first conducted using approximately 25 mg/kg and approximately 120 mg/kg doses administered in capsules. Four animals per dose level per formulation (acid or base) were administered drug. Sprague-Dawley rats were used for these studies and were obtained from Harlan Laboratories at least one weak prior to the experiments to allow animals to recover from shipping stress and to acclimate. Animals weighed 200-250 g at the time of the experiments. Animals were euthanized one hour after drug administration and blood was collected in EDTA containing tubes via cardiac puncture and rapidly centrifuged to separate the plasma. Typically, enough plasma was obtained to afford duplicate sample analysis. The plasma was stored at −80° C. until it was transported to CBA Pharma facilities in Styrofoam containers containing dry ice.
However, multiple capsules required for dosing higher doses were contributing to the pharmacokinetic variability observed in initial pilot studies. Thus in subsequent studies, younger and smaller animals were administered doses of approximately 150 mg/kg, and blood samples were obtained two hours after drug administration. These smaller animals were more difficult to dose because the size of the tablet. Three animals from the “acid” group and two animals from the “base” group were excluded based on the technician's judgment that some tissue damage had been done to the animals during the gavage dosing. […]
In some cases the plasma concentrations could not be determined due to extremely high interfering peaks. […]

[2] = dissolution in water when preparing the liquid dosing formulation; assay type: physicochemical; details: for 200 mg/kg dosing preparation
Description: Thus three animals were administered 200 mg/kg of each the acid and base formulations in liquid or suspension, respectively, to determine if the dosing and/or variability would improve. […] The solution, and suspension were prepared in water with 0.25% carboxymethylcellulose to facilitate fluidity during dosing. Samples were collected at 30 minutes, 1, 2, 5 and 24 hours after administration of […].

With `COc1ccc2cc1Oc1ccc(cc1)C[C@H]1c3cc(c(OC)cc3CCN1C)Oc1c(OC)c(OC)cc3c1[C@H](C2)N(C)CC3` [d-tetrandrine] the “rate of absorption into the bloodstream, free base versus di-acid salt” value ([1]; free base formulations compared with di-acid salt formulations) was “substantially as rapidly as formulations of the di-acid salt”, the “d-tetrandrine plasma concentrations relative to the limit of the HPLC assay” value ([1]; rats, 100 mg/kg, liquid/suspension, oral gavage, sampled up to 48 hours, FIG. 4) was “well above the qualification limit of the HPLC assay for 48 hours” and the “AUC estimates (Bailer method), acid versus base formulation” value ([1]; rats, 100 mg/kg, oral gavage, p>0.05, FIG. 6) was “no statistical or otherwise significant difference”. The “plasma concentrations and dose normalized plasma concentrations, comparison of d-tetrandrine and d-tetrandrine-2HCl formulations” value ([1]; rats, higher dose (approximately 230 mg/kg capsules, 200 mg/kg liquid/suspension), oral gavage, Student t-test, two-tailed, p>0.05, FIG. 2) was “no statistical difference” and the solubility in water [2] was “did not dissolve in water”.
